Data from patent publication KR20230168537A, “유파틸린을 포함하는 대장암 예방 또는 치료용 약학적 조성물” (고려대학교 산학협력단, priority 2022, dated 2023).

Key:
Assay type in all cases: cell-based
[1] = tested on: HCT116; experiment: MTT cell viability assay
[2] = tested on: HT29; experiment: MTT cell viability assay
[3] = tested on: BAK; experiment: Western blot, apoptosis-related protein
[4] = tested on: cytochrome c; experiment: Western blot, apoptosis-related protein
[5] = tested on: HCT116; experiment: BrdU cell proliferation assay; conditions: Homo sapiens, HCT-116; HCT116, 25 μM or more, 48 h; read-out: reduction of cell proliferation
[6] = tested on: HT29; experiment: BrdU cell proliferation assay; conditions: Homo sapiens, HT-29; HT29, 50 μM or more, 48 h; read-out: reduction of cell proliferation
[7] = tested on: HCT116; experiment: Spheroid culture (hanging drop); conditions: HCT116, dose-dependent
[8] = tested on: HT29; experiment: Spheroid culture (hanging drop); conditions: HT29, 50 μM
[9] = tested on: HCT116; experiment: Annexin V/PI apoptosis assay; conditions: Homo sapiens, HCT-116, 48 h, read-out: increase in apoptosis versus control
[10] = tested on: HT29; experiment: Annexin V/PI apoptosis assay; conditions: Homo sapiens, HT-29, 48 h, read-out: increase in apoptosis versus control
[11] = tested on: HCT116; experiment: TUNEL assay, DNA fragmentation; conditions: HCT116, 48 h
[12] = tested on: HT29; experiment: TUNEL assay, DNA fragmentation; conditions: HT29, 48 h
[13] = tested on: HCT116; experiment: Mitochondrial membrane potential (JC-1); conditions: 48 h
[14] = tested on: HT29; experiment: Mitochondrial membrane potential (JC-1); conditions: HT29, 100 μM, 48 h
[15] = tested on: BCL-xL; experiment: Western blot, apoptosis-related protein; conditions: colorectal cancer cells, 24 h
[16] = tested on: colorectal cancer cells (대장암세포); experiment: Cell cycle analysis (PI, flow cytometry); conditions: 100 μM, 48 h
[17] = tested on: HCT116; experiment: ROS production (DCFH-DA)
[18] = tested on: HT29; experiment: ROS production (DCFH-DA)
[19] = tested on: AKT; experiment: Western blot, signalling protein phosphorylation; conditions: HCT116 and HT29 cells
[20] = tested on: P70S6K; experiment: Western blot, signalling protein phosphorylation; conditions: HCT116 and HT29 cells
[21] = tested on: S6; experiment: Western blot, signalling protein phosphorylation; conditions: HCT116 and HT29 cells
[22] = tested on: ERK; experiment: Western blot, signalling protein phosphorylation; conditions: HCT116 and HT29 cells
[23] = tested on: P90RSK; experiment: Western blot, signalling protein phosphorylation; conditions: HCT116 and HT29 cells
[24] = tested on: P38; experiment: Western blot, signalling protein phosphorylation; conditions: HCT116 and HT29 cells
[25] = tested on: JNK; experiment: Western blot, signalling protein phosphorylation; conditions: HCT116 and HT29 cells
[26] = tested on: IRE1α; experiment: Western blot, ER stress-related protein
[27] = tested on: eIF2α; experiment: Western blot, ER stress-related protein; conditions: HCT116
[28] = tested on: GRP78; experiment: Western blot, ER stress-related protein; conditions: HCT116
[29] = tested on: LC3BⅡ; experiment: Western blot, autophagy-related protein
[30] = tested on: ATG5; experiment: Western blot, autophagy-related protein; conditions: HT29
[31] = tested on: P62; experiment: Western blot, autophagy-related protein; conditions: HT29
[32] = tested on: HCT116; experiment: Transwell invasion assay; conditions: Homo sapiens, HCT-116; HCT116, 50 μM, 16 h; read-out: reduction in number of cells passing through Transwell
[33] = tested on: HT29; experiment: Transwell invasion assay; conditions: Homo sapiens, HT-29; HT29, 50 μM, 16 h; read-out: reduction in number of cells passing through Transwell
[34] = tested on: HCT116; experiment: Cell migration assay; conditions: HCT116, 24 h
[35] = tested on: HT29; experiment: Cell migration assay; conditions: HT29, 24 h

**Q.** Which cell viability ([1]; HCT116, anticancer drug 5 μM alone) does the source give for O=c1[nH]cc(F)c(=O)[nH]1 [5-FU, 5-fluorouracil] here?
**A.** 74.2%

**Q.** And the cell viability ([1]; HCT116, anticancer drug 10 μM alone)?
**A.** 71.6%

**Q.** What about the cell viability ([1]; HCT116, anticancer drug 20 μM alone) of the same compound?
**A.** 66.2%

**Q.** And the cell viability ([1]; HCT116, anticancer drug 40 μM alone)?
**A.** 55.4%

**Q.** What about the cell viability ([2]; HT29, anticancer drug 5 μM alone) of the same compound?
**A.** 69.0%

**Q.** And the cell viability ([2]; HT29, anticancer drug 10 μM alone)?
**A.** 64.1%

**Q.** And the cell viability ([2]; HT29, anticancer drug 20 μM alone)?
**A.** 56.5%

**Q.** What about the cell viability ([2]; HT29, anticancer drug 40 μM alone) of the same compound?
**A.** 50.9%

**Q.** What about the BAK expression ([3]; 5-FU-resistant HCT116) of the same compound?
**A.** 발현에는 영향을 미치지 못한

**Q.** And the cytochrome c expression ([4]; 5-FU-resistant HCT116)?
**A.** 발현에는 영향을 미치지 못한

**Q.** CCc1c2c(nc3ccc(OC(=O)N4CCC(N5CCCCC5)CC4)cc13)-c1cc3c(c(=O)n1C2)COC(=O)[C@]3(O)CC [Irinotecan] was tested. Which cell viability ([1]; human, hct116 cells, 5 µM) did it give?
**A.** 66.6%

**Q.** And the cell viability ([1]; human, hct116 cells, 10 µM)?
**A.** 52.0%

**Q.** And the cell viability ([1]; human, hct116 cells, 20 µM)?
**A.** 43.9%

**Q.** What about the cell viability ([1]; human, hct116 cells, 40 µM) of the same compound?
**A.** 28.9%

**Q.** What about the cell viability ([2]; human, ht29 cells, 5 µM) of the same compound?
**A.** 81.4%

**Q.** And the cell viability ([2]; human, ht29 cells, 10 µM)?
**A.** 60.9%

**Q.** What about the cell viability ([2]; human, ht29 cells, 20 µM) of the same compound?
**A.** 50.1%

**Q.** And the cell viability ([2]; human, ht29 cells, 40 µM)?
**A.** 30.1%

**Q.** Which results are given for COc1ccc(-c2cc(=O)c3c(O)c(OC)c(O)cc3o2)cc1OC [유파틸린, 5,7-Dihydroxy-3', 4', 6-trimethoxyflavone]?
**A.** inhibition at 25 µM [5]: ≥ 50%; inhibition at 50 µM [6]: ≥ 50%; reduction of cell viability ([1]; HCT116, 25 μM or more): ≥ 50%; reduction of cell viability ([2]; HT29, 100 μM or more): ≥ 50%; spheroid density [7]: 용량의존적으로 스페로이드의 전체 면적 및 밀도를 감소; spheroid total area [7]: 용량의존적으로 스페로이드의 전체 면적 및 밀도를 감소; spheroid density [8]: 유의적으로 감소; fold induction at 50 µM ([9]; HCT116, 50 μM): 4.4; fold induction at 100 µM ([9]; HCT116, 100 μM): 13.2; fold induction at 50 µM ([10]; HT29, 50 μM): 1.6; fold induction at 100 µM ([10]; HT29, 100 μM): 1.7; frequency of DNA fragmentation [11]: DNA 단편화의 빈도를 증가; frequency of DNA fragmentation [12]: DNA 단편화의 빈도를 증가; decrease in mitochondrial membrane potential ([13]; HCT116, 50 μM): 2.0 fold; decrease in mitochondrial membrane potential ([13]; HCT116, 100 μM): 2.6 fold; decrease in mitochondrial membrane potential [14]: 1.5 fold; BCL-xL expression [15]: 발현을 저해; BAK expression ([3]; colorectal cancer cells, 24 h): 발현을 증가; cytochrome c expression ([4]; colorectal cancer cells, 24 h): 발현을 증가; proportion of S phase [16]: S기의 비율을 감소; proportion of SubG1 phase [16]: 유의적으로 증가; DCF fluorescence ([17]; HCT116): 형광을 증가; fold induction at 50 µM ([17]; Homo sapiens, HCT-116, HCT116, 50 μM, 1 h, read-out: increase in ROS production): 15.8; DCF fluorescence ([18]; HT29): 형광을 증가; fold induction at 50 µM ([18]; Homo sapiens, HT-29, HT29, 50 μM, 1 h, read-out: increase in ROS production): 5.6; AKT phosphorylation [19]: 인산화를 억제; P70S6K phosphorylation [20]: 인산화를 억제; S6 phosphorylation [21]: 인산화를 억제; ERK phosphorylation [22]: 인산화를 유도; P90RSK phosphorylation [23]: 인산화를 유도; P38 phosphorylation [24]: 인산화 역시 증가; JNK phosphorylation [25]: 인산화 역시 증가; IRE1α expression ([26]; HCT116): 발현을 증가; IRE1 expression ([26]; HT29, only IRE1 increased among the ER stress proteins): IRE1의 발현만 증가; phosphorylated eIF2α expression [27]: 발현을 증가; GRP78 expression [28]: 발현을 증가; LC3BⅡ expression ([29]; HCT116): 발현을 증가; LC3BⅡ expression ([29]; HT29): 발현을 증가; ATG5 expression [30]: 발현을 증가; P62 expression [31]: 발현을 증가; inhibition at 50 µM [32]: 97.2%; inhibition at 50 µM [33]: 42%; cell migration [34]: 세포 이주성을 현저하게 감소; cell migration [35]: 세포 이주성을 현저하게 감소
